Reference: ChEMBL document CHEMBL4118217, “Pyrrolinone derivatives as a new class of P2X3 receptor antagonists. Part 1: Initial structure-activity relationship studies of a hit from a high throughput screening” (Bioorg Med Chem Lett, 2018)

Key:
[1] = Half life in rat at 0.5 mg/kg, iv or 1 mg/kg, po; type: ADME, organism-based; conditions: in vivo
P2X purinoceptor 3 = biological target: T1, P2X purinoceptor 3 (Homo sapiens, UniProt P56373)
T1 sequence (P56373 whole entry): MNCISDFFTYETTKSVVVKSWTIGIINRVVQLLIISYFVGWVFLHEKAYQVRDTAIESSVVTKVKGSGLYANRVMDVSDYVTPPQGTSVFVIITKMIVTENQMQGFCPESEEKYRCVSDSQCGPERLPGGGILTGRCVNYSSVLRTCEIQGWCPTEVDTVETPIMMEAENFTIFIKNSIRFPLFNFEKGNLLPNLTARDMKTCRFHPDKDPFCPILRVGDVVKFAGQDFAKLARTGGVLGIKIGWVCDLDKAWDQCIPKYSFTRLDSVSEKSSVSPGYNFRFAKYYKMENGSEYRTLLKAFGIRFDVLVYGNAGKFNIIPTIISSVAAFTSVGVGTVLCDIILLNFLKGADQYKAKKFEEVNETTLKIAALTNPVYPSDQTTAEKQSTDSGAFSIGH

in vivo = conditions: rat, iv, 0.5 mg/kg
[2] = Oral bioavailability in rat at 1 mg/kg; type: ADME, organism-based; conditions: in vivo
Mus musculus = assay: Analgesic activity in iv dosed mouse assessed as inhibition of acetic acid-induced writhes; type: functional

SMILES	IC50 (P2X purinoceptor 3) [nM]	further results
CCOC(=O)c1ccc(N2C(=O)C(O)=C(C(=O)c3ccc(OC)cc3)C2c2ccc(F)cc2)cc1 (stereo unspecified)	20	half-life [1]: 0.1 h; clearance (in vivo): 37 mL/min/kg
COc1ccc(C(=O)C2=C(O)C(=O)N(c3ccc(-c4ccon4)cc3)C2C2CCCCC2)cc1 (stereo unspecified) [listing 1 of 2 here]	–	half-life [1]: 1.3 h; bioavailability [2]: 10.2%
COc1ccc(C(=O)C2=C(O)C(=O)N(c3ccc(-c4nnc(C)o4)cc3)C2C2CCCCC2)cc1 (stereo unspecified)	72	half-life [1]: 1.7 h; bioavailability [2]: 2.9%; clearance (in vivo): 5.5 mL/min/kg
COc1ccc(C(=O)C2=C(O)C(=O)N(c3ccc(-c4cc(C)no4)cc3)C2C2CCCCC2)cc1 (stereo unspecified)	9	half-life [1]: 1.1 h; bioavailability [2]: 0.5%; clearance (in vivo): 6.2 mL/min/kg
COc1ccc(C(=O)C2=C([O-])C(=O)N(c3ccc(-c4ccon4)cc3)C2C2CCCCC2)cc1.[Na+] (stereo unspecified)	–	ED50 (Mus musculus): 2.6 mg/kg
COc1ccc(C(=O)C2=C(O)C(=O)N(c3ccc(C(F)(F)F)cc3)C2c2ccc(F)cc2)cc1 (stereo unspecified)	360	–
COc1ccc(C(=O)C2=C(O)C(=O)N(c3ccc(-c4ccon4)cc3)C2C2CCCCC2)cc1 (stereo unspecified) [listing 2 of 2 here]	–	inhibition (Mus musculus): Dose-dependent effect
COc1ccc(C(=O)C2=C(O)C(=O)N(c3ccc(-c4noc(C)n4)cc3)C2c2ccccc2)cc1 (stereo unspecified)	100	–
COc1ccc(C(=O)C2=C(O)C(=O)N(c3ccccc3)C2c2ccccc2)cc1 (stereo unspecified)	> 10000	–
COc1ccc(C(=O)C2=C(O)C(=O)N(c3ccc(-c4nc(C)no4)cc3)C2C2CCCCC2)cc1 (stereo unspecified)	–	half-life [1]: 1 h; bioavailability [2]: 13.5%; clearance (in vivo): 3.4 mL/min/kg
CCOC(=O)c1ccc(N2C(=O)C(O)=C(C(=O)c3ccc(OC)cc3)C2c2ccc(Cl)cc2)cc1 (stereo unspecified)	130	–
COc1ccc(C(=O)C2=C(O)C(=O)N(c3ccc(-c4ncco4)cc3)C2C2CCCCC2)cc1 (stereo unspecified)	135	–
CCOC(=O)c1ccc(N2C(=O)C(O)=C(C(=O)c3ccc(OC)cc3)C2C2CCCCC2)cc1 (stereo unspecified)	10	–
COc1ccc(C(=O)C2=C(O)C(=O)N(c3ccc(-c4noc(C)n4)cc3)C2C2CCCCC2)cc1 (stereo unspecified)	19	half-life [1]: 0.8 h; bioavailability [2]: 7.1%; clearance (in vivo): 5 mL/min/kg
CCOC(=O)c1ccc(N2CC(C(=O)c3ccc(OC)cc3)=C(O)C2=O)cc1	> 10000	–
CCOC(=O)c1ccc(N2C(=O)C(O)=C(C(C)=O)C2c2ccccc2)cc1 (stereo unspecified)	4790	–
CCOC(=O)c1ccc(N2C(=O)C(O)=C(C(=O)c3ccccc3)C2c2ccccc2)cc1 (stereo unspecified)	370	–

Continued, in another order:

IC50 (P2X purinoceptor 3) [nM]	SMILES	further results
> 10000	CCOC(=O)c1ccc(N2C(=O)C(O)=C(Cc3ccc(OC)cc3)C2c2ccccc2)cc1 (stereo unspecified)	–
20	CCOC(=O)c1ccc(N2C(=O)C(O)=C(C(=O)c3ccc(OC)cc3)C2c2ccccc2)cc1 (stereo unspecified)	–
130	CCOC(=O)c1ccc(N2C(=O)C(O)=C(C(=O)c3ccc(OC)cc3)C2c2ccccc2F)cc1 (stereo unspecified)	–
30	CCOC(=O)c1ccc(N2C(=O)C(O)=C(C(=O)c3ccc(OC)cc3)C2c2cccc(F)c2)cc1 (stereo unspecified)	–
9800	CCOC(=O)c1ccc(N2C(=O)C(OC)=C(C(=O)c3ccc(OC)cc3)C2c2ccccc2)cc1 (stereo unspecified)	–
> 10000	COc1ccc(C(=O)C2=C(O)C(=O)N(c3ccc(CO)cc3)C2c2ccccc2)cc1 (stereo unspecified)	–
> 10000	COc1ccc(C(=O)C2=C(O)C(=O)N(c3ccc(C(=O)O)cc3)C2c2ccccc2)cc1 (stereo unspecified)	–
4240	CCOC(=O)c1ccc(N2C(=O)C(NO)=C(C(=O)c3ccc(OC)cc3)C2c2ccccc2)cc1 (stereo unspecified)	–
560	CCOC(=O)c1ccc(N2C(=O)C(O)=C(/C(=N/O)c3ccc(OC)cc3)C2c2ccccc2)cc1 (stereo unspecified)	–
3930	CCOC(=O)c1ccc(N2C(=O)C(O)=C(C(=O)Nc3ccc(OC)cc3)C2c2ccccc2)cc1 (stereo unspecified)	–
3280	COc1ccc(C(=O)C2=C(O)C(=O)N(c3ccc(C(C)=O)cc3)C2c2ccccc2)cc1 (stereo unspecified)	–
90	CCOC(=O)c1ccc(N2C(=O)C(O)=C(C(=O)c3ccc(OC)cc3)C2c2ccccc2Cl)cc1 (stereo unspecified)	–
> 10000	CCOC(=O)c1ccc(N2C(=O)C(O)=C(c3ccc(OC)cc3)C2c2ccccc2)cc1 (stereo unspecified)	–
> 10000	CCOC(=O)c1ccc(N2C(=O)C=C(C(=O)c3ccc(OC)cc3)C2c2ccccc2)cc1 (stereo unspecified)	–
1370	CCOC(=O)c1ccc(N2C(=O)C(O)=C(NC(=O)c3ccc(OC)cc3)C2c2ccccc2)cc1 (stereo unspecified)	–
